Experimental data reported in ChEMBL document CHEMBL3826923, “Synthesis and biological activity of novel ester derivatives of N(3)-(4-metoxyfumaroyl)-(S)-2,3-diaminopropanoic acid containing amide and keto function as inhibitors of glucosamine-6-phosphate synthase” (Bioorg Med Chem Lett, 2016).

Assays:
Candida albicans = assay: Antimicrobial activity against Candida albicans ATCC 10231 after 48 hrs by serial two fold dilution method; type: functional; conditions: ATCC 10231, 48 h
Nakaseomyces glabratus = assay: Antimicrobial activity against Candida glabrata DSM 11226 after 48 hrs by serial two fold dilution method; type: functional; conditions: DSM 11226, 48 h
Staphylococcus aureus = assay: Antimicrobial activity against Staphylococcus aureus ATCC 29213 after 24 hrs by serial two fold dilution method; type: functional; conditions: ATCC 29213, 24 h
Escherichia coli = assay: Antimicrobial activity against Escherichia coli PCM 2560 after 24 hrs by serial two fold dilution method; type: functional; conditions: PCM 2560, 24 h
[1] = Inhibition of Candida albicans glucosamine-6-phosphate synthase expressed in Escherichia coli using D-fructose-6-phosphate as substrate after 30 mins

Compound | MIC80 (Candida albicans) [µg/mL] | MIC80 (Nakaseomyces glabratus) [µg/mL] | MIC80 (Staphylococcus aureus) [µg/mL] | MIC80 (Escherichia coli) [µg/mL] | IC50 [1] [µM]
COC(=O)/C=C/C(=O)NC[C@H](N)C(=O)O | > 1020 | > 1020 | > 1020 | > 1020 | 4.03
COC(=O)/C=C/C(=O)NC[C@H](N)C(=O)OCC(=O)N(C)C.Cl | 2 | > 1020 | 512 | > 1020 | 66.6
COC(=O)/C=C/C(=O)NC[C@H](N)C(=O)O[C@@H](C)C(=O)N(C)C.Cl | 256 | > 1020 | > 1020 | > 1020 | > 5000
COC(=O)/C=C/C(=O)NC[C@H](N)C(=O)OCC(C)=O.Cl | 0.25 | 512 | > 1020 | > 1020 | 5.08
COC(=O)/C=C/C(=O)NC[C@H](N)C(=O)OCC(N)=O.Cl | 128 | > 1020 | > 1020 | > 1020 | 202
CNC(=O)[C@H](C)OC(=O)[C@@H](N)CNC(=O)/C=C/C(=O)OC.Cl | 16 | > 1020 | > 1020 | > 1020 | 199
CNC(=O)COC(=O)[C@@H](N)CNC(=O)/C=C/C(=O)OC.Cl | 1 | > 1020 | 1020 | > 1020 | 27
COC(=O)/C=C/C(=O)NC[C@H](N)C(=O)OC(C)C(C)=O.Cl (stereo not given in full) | 0.5 | 512 | > 1020 | > 1020 | 4.91
COC(=O)/C=C/C(=O)NC[C@H](N)C(=O)O[C@@H](C)C(N)=O.Cl | 8 | > 1020 | > 1020 | > 1020 | 82.1
COC(=O)/C=C/C(=O)NC[C@H](N)C(=O)OCC(=O)C(C)(C)C.Cl | 0.5 | 512 | > 1020 | > 1020 | 5.17
